The text below walks through data of patent publication US20230234943A1, “TREX1 INHIBITORS AND USES THEREOF” (Tempest Therapeutics, Inc., priority 2020, published 2023).

This experiment deals with T1, Human TREX1 enzyme (amino acids 1-242) (Homo sapiens, UniProt Q9NSU2).
T1 construct: Human TREX1 enzyme (amino acids 1-242)
T1 sequence (Q9NSU2 1-242): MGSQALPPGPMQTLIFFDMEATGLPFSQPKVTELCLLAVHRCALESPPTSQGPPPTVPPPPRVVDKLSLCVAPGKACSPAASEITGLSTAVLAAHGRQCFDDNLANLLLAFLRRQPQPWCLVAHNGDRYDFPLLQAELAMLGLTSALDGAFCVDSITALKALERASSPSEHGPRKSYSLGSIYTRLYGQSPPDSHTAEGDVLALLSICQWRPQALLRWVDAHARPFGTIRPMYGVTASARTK
Put plainly: Human TREX1 enzymatic assay with dsDNA native oligonucleotide (Picogreen fluorescence). Format: biochemical. Particulars: 2 mM dithiothreitol in assay buffer; 50 nM dsDNA oligonucleotide; 30 min preincubation at 25° C.; read-out: TREX1/Human + DTT IC50 AVG. The essentials:
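TREX1 (0.8–0.16 nM final) preincubated with compound (300 μM–13 nM or 30 μM–1.5 nM, 2% DMSO) 30 min at 25 °C in Tris pH 7.7, 5 mM MgCl2, 2 mM DTT. Annealed dsDNA (50 nM) added for 5–15 min at 25 °C; EDTA quench with Picogreen fluorescence readout.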
Consider `COc1cc(-c2nc3cc(S(=O)(=O)Nc4ccccc4)ccc3[nH]2)cc(O)c1O` [Example 19, 2-(3,4-dihydroxy-5-methoxyphenyl)-N-phenyl-1H-benzo[d]imidazole-5-sulfonamide], for which the IC50 is over 100 µM. As for `C=CCCC(=O)N1CCN(c2ccc3[nH]c(-c4cc(O)c(O)c(OC)c4)nc3c2)CC1` [Example 33, 1-(4-(2-(3,4-dihydroxy-5-methoxyphenyl)-1H-benzo[d]imidazol-5-yl)piperazin-1-yl)pent-4-en-1-one], the figure is 10 to 100 µM. With `COc1cc(-c2nc3ccccc3n2C23CC(C2)C3)c(F)c(O)c1O` [Example 328, 4-(1-(bicyclo[1.1.1]pentan-1-yl)-1H-benzo[d]imidazol-2-yl)-3-fluoro-6-methoxybenzene-1,2-diol], the IC50 was at most 0.1 µM. For `COc1cc(-c2nc3c(N4CCOCC4)cncc3[nH]2)cc(O)c1O` [Example 76, 3-methoxy-5-(7-morpholino-3H-imidazo[4,5-c]pyridin-2-yl)benzene-1,2-diol], the IC50 lay within 10 to 100 µM.

Take `COc1cc(-c2nc3nc(N4CCOCC4)ccc3[nH]2)cc(O)c1O` [Example 94, 3-methoxy-5-(5-morpholino-1H-imidazo[4,5-b]pyridin-2-yl)benzene-1,2-diol]: the IC50 is 10 to 100 µM. Then `COc1cc(-c2nc3cc(N4[C@@H]5CC[C@H]4CN(C(=O)c4ccccc4)C5)ccc3[nH]2)cc(O)c1O` [Example 135, ((1R,5S)-8-(2-(3,4-dihydroxy-5-methoxyphenyl)-1H-benzo[d]imidazol-5-yl)-3,8-diazabicyclo[3.2.1]octan-3-yl)(phenyl)methanone], with 1 to 10 µM; and `COc1cc(-c2nc3ccc(Nc4ccccc4)cc3n2C2(C)COC2)c(F)c(O)c1O` [Example 318, 3-fluoro-6-methoxy-4-(1-(3-methyloxetan-3-yl)-6-(phenylamino)-1H-benzo[d]imidazol-2-yl)benzene-1,2-diol], with 0.1 to 1 µM. As for `COc1cc(-c2nc3cc(N4CCCC4=O)ccc3n2C2COC2)c(F)c(O)c1O` [Example 191, 1-(2-(2-fluoro-3,4-dihydroxy-5-methoxyphenyl)-1-(oxetan-3-yl)-1H-benzo[d]imidazol-5-yl)pyrrolidin-2-one], the figure is 10 to 100 µM; as for `COc1cc(-c2nc3cc(N4CCN(C(=O)c5ccccc5C(F)(F)F)CC4)ccc3[nH]2)cc(O)c1O` [Example 104, (4-(2-(3,4-dihydroxy-5-methoxyphenyl)-1H-benzo[d]imidazol-5-yl)piperazin-1-yl)(2-(trifluoromethyl)phenyl)methanone], over 100 µM. As for `CCCC(=O)Nc1ccc2c(c1)nc(-c1cc(OC)c(O)c(O)c1F)n2C1(C)COC1` [Example 215, N-(2-(2-fluoro-3,4-dihydroxy-5-methoxyphenyl)-1-(3-methyloxetan-3-yl)-1H-benzo[d]imidazol-5-yl)butyramide], the figure is at most 0.1 µM.

As for `COc1cc(-c2nc3cc(N4CCOCC4)ccc3[nH]2)cc(C(=O)O)c1O` [Example 151, 2-hydroxy-3-methoxy-5-(5-morpholino-1H-benzo[d]imidazol-2-yl)benzoic acid], the IC50 is 10 to 100 µM. Turning to `COc1cc(-c2nc3cc(NCc4ccccc4)ccc3n2C2(C)COC2)c(F)c(O)c1O` [Example 222, 4-(5-(benzylamino)-1-(3-methyloxetan-3-yl)-1H-benzo[d]imidazol-2-yl)-3-fluoro-6-methoxybenzene-1,2-diol], the IC50 was at most 0.1 µM. In the case of `COc1cc(-c2nc3ccccc3n2C2CCC2)c(F)c(O)c1O` [Example 327, 4-(1-cyclobutyl-1H-benzo[d]imidazol-2-yl)-3-fluoro-6-methoxybenzene-1,2-diol], the IC50 was 1 to 10 µM.

Consider `COc1cc(-c2nc3cc(N4CCN(S(=O)(=O)c5ccccc5)CC4)ccc3[nH]2)cc(O)c1O` [Example 87, 3-methoxy-5-(5-(4-(phenylsulfonyl)piperazin-1-yl)-1H-benzo[d]imidazol-2-yl)benzene-1,2-diol], for which the IC50 is over 100 µM. As for `COc1cc(-c2nc3cc(F)ccc3[nH]2)c(F)c(O)c1O` [Example 231, 3-fluoro-4-(5-fluoro-1H-benzo[d]imidazol-2-yl)-6-methoxybenzene-1,2-diol], the figure is over 100 µM; as for `COc1cc(-c2nc3cc(N4CCOCC4)ccc3[nH]2)cc(O)c1O` [Example 25, 3-methoxy-5-(5-morpholino-1H-benzo[d]imidazol-2-yl)benzene-1,2-diol], over 100 µM. For `COc1cc(-c2nc3ccccc3n2C2(C)COC2)c(C)c(O)c1O` [Example 169, 6-methoxy-3-methyl-4-(1-(3-methyloxetan-3-yl)-1H-benzo[d]imidazol-2-yl)benzene-1,2-diol], the IC50 fell in the range of 0.1 to 1 µM.

For `COC(=O)c1ccc2nc(-c3cc(OC)c(O)c(O)c3F)n(C3(C)COC3)c2c1` [Example 211, methyl 2-(2-fluoro-3,4-dihydroxy-5-methoxyphenyl)-1-(3-methyloxetan-3-yl)-1H-benzo[d]imidazole-6-carboxylate], the IC50 is at most 0.1 µM. As for `COc1cc(-c2nc3cc(N4CCN(C)C(C)(C)C4)ccc3[nH]2)cc(O)c1O` [Example 121, 3-methoxy-5-(5-(3,3,4-trimethylpiperazin-1-yl)-1H-benzo[d]imidazol-2-yl)benzene-1,2-diol], the figure is over 100 µM; as for `COc1cc(-c2nc3ccc(C(C)(C)O)cc3n2C2(C)COC2)c(F)c(O)c1O` [Example 185, 3-fluoro-4-[6-(2-hydroxypropan-2-yl)-1-(3-methyloxetan-3-yl)-1H-1,3-benzodiazol-2-yl]-6-methoxybenzene-1,2-diol], 1 to 10 µM; as for `COc1c(O)c(O)c(C)c(-c2nc3ccccc3[nH]2)c1F` [Example 64, 4-(1H-benzo[d]imidazol-2-yl)-5-fluoro-6-methoxy-3-methylbenzene-1,2-diol], 10 to 100 µM. Turning to `Oc1cc(-c2nc3ccccc3n2C2CCC2)cc(OC(F)(F)F)c1O` [Example 233, 5-(1-cyclobutyl-1H-benzo[d]imidazol-2-yl)-3-(trifluoromethoxy)benzene-1,2-diol], the IC50 is over 100 µM.

As for `COc1cc(-c2nc3ccc(C(=O)NC4COC4)cc3n2C2(C)COC2)c(F)c(O)c1O` [Example 254, 2-(2-fluoro-3,4-dihydroxy-5-methoxyphenyl)-1-(3-methyloxetan-3-yl)-N-(oxetan-3-yl)-1H-benzo[d]imidazole-6-carboxamide], the IC50 was at most 0.1 µM. As for `COc1cc(-c2nc3ccc(N4CCN(C)CC4)cc3n2C2COC2)cc(O)c1O` [Example 51, 3-methoxy-5-(6-(4-methylpiperazin-1-yl)-1-(oxetan-3-yl)-1H-benzo[d]imidazol-2-yl)benzene-1,2-diol], the IC50 was over 100 µM. Then `COc1cc(-c2nc3cc(N4CC5(C4)CN(C(C)C)C5)ccc3[nH]2)cc(O)c1O` [Example 153, 5-(5-(6-isopropyl-2,6-diazaspiro[3.3]heptan-2-yl)-1H-benzo[d]imidazol-2-yl)-3-methoxybenzene-1,2-diol], with 10 to 100 µM; and `COc1cc(-c2nc3cc(N4CCNCC4)ccc3[nH]2)cc(O)c1O` [Example 18, 3-methoxy-5-(5-(piperazin-1-yl)-1H-benzo[d]imidazol-2-yl)benzene-1,2-diol], with over 100 µM; and `COc1cc(-c2nc3ccc(N4CCN(C)CC4)cc3n2C)cc(O)c1O` [Example 38, 3-methoxy-5-(1-methyl-6-(4-methylpiperazin-1-yl)-1H-benzo[d]imidazol-2-yl)benzene-1,2-diol], with over 100 µM. Turning to `Oc1cc(-c2nc3ccccc3n2C2COC2)c2c(c1O)OCC2` [Example 162, 4-(1-(oxetan-3-yl)-1H-benzo[d]imidazol-2-yl)-2,3-dihydrobenzofuran-6,7-diol], the IC50 is over 100 µM. Then `COc1cc(-c2nc3cc(N4CCN(C(=O)c5ccccc5C(C)(C)C)CC4)ccc3[nH]2)cc(O)c1O` [Example 133, (2-(tert-butyl)phenyl)(4-(2-(3,4-dihydroxy-5-methoxyphenyl)-1H-benzo[d]imidazol-5-yl)piperazin-1-yl)methanone], with over 100 µM. As for `COc1cc(-c2nc3cc(Cl)c(Cl)cc3n2C2(C)COC2)cc(O)c1O` [Example 302, 5-(5,6-dichloro-1-(3-methyloxetan-3-yl)-1H-benzo[d]imidazol-2-yl)-3-methoxybenzene-1,2-diol], the IC50 lay in the range of 0.1 to 1 µM.

Take `COc1cc(-c2nc3cc(N4CCC4)ccc3n2C2CCOC2)cc(C(=O)O)c1O` (stereo not shown) [Example 28, 5-(5-(azetidin-1-yl)-1-(tetrahydrofuran-3-yl)-1H-benzo[d]imidazol-2-yl)-2-hydroxy-3-methoxybenzoic acid]: the IC50 was in the range of 10 to 100 µM. As for `COc1cc(-c2nc3cnccc3n2C)cc(O)c1O` [Example 45, 3-methoxy-5-(1-methyl-1H-imidazo[4,5-c]pyridin-2-yl)benzene-1,2-diol], the figure is over 100 µM. On to `COc1cc(-c2nc3cc(-c4ccccc4)ccc3[nH]2)cc(O)c1O` [Example 69, 3-methoxy-5-(5-phenyl-1H-benzo[d]imidazol-2-yl)benzene-1,2-diol], for which the IC50 is over 100 µM. Then `COc1cc(-c2nc3cc(N4CCN(C(=O)c5cccc(-c6ccccc6)c5)CC4)ccc3[nH]2)cc(O)c1O` [Example 113, [1,1′-biphenyl]-3-yl(4-(2-(3,4-dihydroxy-5-methoxyphenyl)-1H-benzo[d]imidazol-5-yl)piperazin-1-yl)methanone], with over 100 µM.
